In patent US5561042A, “Diamine platinum naphthalimide complexes as antitumor agents” (Cancer Therapy and Research Center, priority 1995, dated 1996):

What was measured:
[1] = system: HT29 Human Colon Carcinoma cell line; experiment: In vitro growth inhibition (MTT), HT29 colon carcinoma; assay type: cell-based; conditions: 6 days
Description: (§1) P388 murine leukemic cell line was obtained from the DCT Tumor Repository (National Cancer Institute, Frederick Cancer Research and Development, Frederick Md. 21702). HT29 Human Colon Carcinoma cell line was obtained from the American Type Culture Collection (12301 Parklawn Drive, Rockville, Md. 20852). B16 Melanoma cell line was obtained from DuPont Merck Pharmaceutical Company (Glenolden, Pa. 19036). MCF-7 Human Breast Carcinoma cell line was a gift from Dr. K. Osborne (Department of Medicine, The University of Texas Health Science Center at San Antonio, San Antonio, Tex. 78284). All cell lines were incubated at 37° C. in a humidified atmosphere of 5% CO2 -95% air. Murine B16 melanoma cell line was grown in RPMI 1640 medium supplemented with 10% heat-inactivated fetal bovine serum, 2 mM L-glutamine, 50 units/ml penicillin, 50 μg/ml streptomycin, 25 μg/ml gentamycin, 0.75% sodium bicarbonate, 10 mM HEPES buffer (pH 7.4), and 0.06 mg/ml AntiPPLO. Murine P388 leukemic and the human HT-29 colon adenocarcinoma cell lines were maintained in RPMI 1640 medium supplemented with 10% heat-inactivated fetal bovine serum. MCF-7M human breast adenocarcinoma was maintained in IMEM medium supplemented with 5% non heat-inactivated fetal bovine serum and 1 nM insulin.
(§2) Exponentially growing cells (1-2×10^3 cells, unless specified otherwise) in 0.1 ml medium were seeded on day 0 in a 96-well microtiter plate. On day 1, 0.1 ml aliquots of medium containing graded concentrations of test compounds were added in duplicate to the cell plates. After incubation at 37° C. in a humidified incubator for 3 days (P388, B16) or 6 days (HT-29, MCF-7M), the plates were centrifuged briefly and 100 μl of the growth medium was removed. Cell cultures were incubated with 50 μl of 3-(4,5-dimethylthiazol-2-yl)-2,5-diphenyl-tetrazolium bromide [MTT, 1 mg/ml in Dulbecco's phosphate buffered saline (PBS)] for 4 hr at 37° C. The resulting purple formazan precipitate was solubilized with 200 μl of 0.04N HCl in isopropyl alcohol. Absorbance was monitored in a BioRad Model 3550 Microplate Reader at a test wavelength of 570 nm and a reference wavelength of 630 nm. The absorbance was transferred to a PC 486 computer. The IC50 values were determined by a computer program (EZ-ED50) that fit all of the data to the following four-parameterlogistic equation:
(§3) Y=((Am -Ao)/(1+(X/IC50)^n))+Ao
(§4) where Am is the absorbance of control cells, Ao is the absorbance of cells in the presence of highest agent concentration, Y is the observed absorbance, X is the agent concentration, IC50 is the concentration of agent that inhibits the cell growth by 50% of control cells (based on the absorbance) and n is the slope of the curve.

[2] = system: MCF-7 Human Breast Carcinoma cell line; experiment: In vitro growth inhibition (MTT), MCF-7 breast carcinoma; assay type: cell-based; conditions: 6 days
Description: as §1, §2, §3, §4

[3] = molecular target: poly (dA.dT) - poly (dA.dT); experiment: Ethidium bromide displacement, poly(dA.dT)-poly(dA.dT); assay type: binding; conditions: 1 μM DNA, 1.26 μM ethidium bromide, pH 7.0, read-out: FI50, poly (dA.dT) - poly (dA.dT)
Experimental: (§5) A 10× Binding solution was prepared by combining 0.93 ml of an aqueous NaCl solution (5M), 2.0 ml of an aqueous Tris HCl (500 mM) solution, 0.1 ml of an EDTA solution (500 mM) and 46.97 ml of water. The resultant solution was 93 mM in NaCl, 20 mM in Tris HCl, and 1 mM in EDTA. Stock DNA solution were prepared as follows: Poly (dG·dC)-(dG·dC) (ε254=8.4/mM; 27-7910-02), poly(dA·dT)-(dA·dT) (ε262=6.6/mM; 27-7870-02), and lambda DNA (ε260-7.0/mM; 27-4111-01) were purchased from Pharmacia. Solutions were prepared by resuspending either poly (dG·dC)-(dG·dC) or poly(dA·dT)-(dA·dT)in 1 ml of 10× DNA Binding Solution. Lambda DNA is already in solution as purchased.
(§6) Poly (dG·dC)-(dG·dC), poly(dA·dt)-(dA·dt) and lambda DNA concentrations were determined as follows: 980 μl of 10× DNA Binding Solution was pipetted into a 1 ml cuvette. A blank was run on the UV spectrophotometer. 20 μl of the DNA stock of unknown concentration was then added into the cuvette. The sample was then scanned between 210 nm to 500 nm and the absorbance recorded at 254 nm for poly(dG·dC)-(dG·dC), at 262 nm for poly(dA·dT)-(dA·dT) and at 260 nm for lambda DNA. The solution was transferred to a clean tube. This procedure was followed for three different solutions with the absorbance taken as the average of the three. The concentration of poly(dG·dC)-(dG·dC) stock was calculated to be A254 /8.4×1000 (in μM). The concentration of poly(dA·dT)-(dA·dT) stock was calculated to be A262 /6.6×1000 (in μM). The concentration of lambda DNA stock was calculated to be A260 /7.0×1000 (in μM).
(§7) The binding of the bis-naphthalimides to DNA and to synthetic polynucleotide duplexes was determined by an ethidium bromide displacement assay that measures the reduction of fluorescence when ethidium bromide is displaced from DNA (Baguley, 1981). The fluorescence intensity of a 3 ml solution containing 9.3 mM NaCl, 2 mM Tris-HCl (pH 7.0), 100 μM EDTA, 1 μM DNA (in nucleotides) and 1.26 μM ethidium bromide in a quartz cuvette was measured at the excitation (546 nm) and emission (600 nm) wavelengths on a Shimadzu RF5000U spectrofluorometer. Graded concentrations of agent were then added and the fluorescence intensity was measured. The concentration of compound required to reduce the fluorescence intensity by 50% of that of control (FI50) was determined. Therefore, the lower the FI50 the stronger the binding affinity a particular compound has for DNA.
(§8) The ability of bis-naphthalimides of the present invention and the known anti-cancer agents compound 22 and DMP840, (R,R)-2,2'[1,2-ethanediylbis[imino(1-methyl-2,1-ethanediyl)]]-bis[5-nitro- 1H benz[de]isoquinoline-1,3-(2H)dione]dimethanesulfonate, to bind to DNA and to synthetic oligonucleotide duplexes was measured using an ethidium bromide displacement assay. Ethidium bromide, a known DNA intercalator, has no fluorescence in the absence of DNA; however, fluorescence intensity increases when ethidium bromide binds to DNA. The ethidium bromide displacement assay measures the decrease in fluorescence intensity caused by DNA-bound ethidium bromide with DNA interacting agents.

[4] = system: poly (dG.dC) - poly (dG.dC); experiment: Ethidium bromide displacement, poly(dG.dC)-poly(dG.dC); assay type: binding
Experimental: as §5, §6, §7, §8

8-(3'-nitro-1',8'-naphthalimide)-3,6-diazaoctylamine dichloroplatinum(II) [Compound 21]
IC50 [1]: 129 nM
IC50 [2]: 66 nM
IC50 [3]: 173 nM
Ratio (AT/GC) ([4]; FI50 poly(dA.dT)-poly(dA.dT) / FI50 poly(dG.dC)-poly(dG.dC)): 0.72
IC50 ([4]; ethidium bromide displacement, 1 μM DNA, 1.26 μM ethidium bromide, pH 7.0, read-out: FI50, poly (dG.dC) - poly (dG.dC)): 239 nM
